Paper PMC4205289, “Triptolide inhibits human immunodeficiency virus type 1 replication by promoting proteasomal degradation of Tat protein” (Retrovirology, 2014)

How the values were obtained:
FLAG-Tat = tested on: T1, FLAG-Tat; experiment: Proteasome inhibition rescue of Tat expression, Western blot, HeLa cells; assay type: cell-based, HIV-1 NL4-3; conditions: 5 nM triptolide, without MG132
T1 construct: expressed in transfected cells; host or cells: HeLa
Protocol: Figure 6 Triptolide reduces Tat protein stability by enhancing proteasomal degradation of Tat. (A) The effect of triptolide on Tat mRNA levels. HeLa cells were transfected with pEF1-Tat in the presence of increasing concentrations of triptolide. Cells were harvested 48 h post-transfection. The steady-state mRNA levels of Tat and GAPDH were examined using semi-quantitative reverse transcription PCR analysis. RT, reverse transcriptase. (B) The effect of triptolide on Tat protein degradation. HeLa cells were transfected with pEF1-FLAG-Tat in the presence of 5 nM triptolide or vehicle (DMSO). At 28 h post-transfection, cells were treated with 20 μg/mL of CHX to arrest protein synthesis. At 0, 1, 2, 3 h post-treatment, cells were harvested to determine protein expression levels using Western blot analysis. (C) The band intensities of FLAG-Tat in panel B were measured, and their natural log values were plotted as a function of time. Results were presented as the mean plus the standard deviations (n = 3). (D) Proteasome inhibition restores Tat protein expression. HeLa cells were transfected with pEF1-FLAG-Tat in the presence or absence of 5 nM triptolide. At 48 h post-transfection, cells were treated with 20 μM of MG132, and cultured for an additional 3 h before harvest. Protein expression levels were determined by Western blot analysis. TEXT PRINTED IN THE PICTURE: (C) DMSO: Half-lives: 2.0 h | (C) Triptolide: Half-lives: 0.4 h
(§1) Cells were washed with phosphate buffered saline (PBS) and lysed with radio immunoprecipitation assay lysis buffer supplemented with complete mini protease inhibitor cocktail (Roche) at 4°C for 1 h. Proteins from cell lysates were separated by SDS-PAGE and transferred to polyvinylidene difluoride membranes. After overnight incubation with primary antibodies at 4°C, each blot was probed with horseradish peroxidase-conjugated secondary antibody. Immunoreactive signals were detected with an enhanced chemiluminescence substrate (Thermo Scientific) using an AlphaEaseH FC Imaging System (Alpha Innotech Corporation).

HIV-1 NL4-3 = experiment: microbe, parasite or virus in culture; assay type: cell-based
Protocol: The anti-HIV-1 activities of compounds were evaluated in a variety of assays, including the TZM-bl assay, reporter virus assay, and PBMCs-based antiviral assay. In the TZM-bl assay, TZM-bl cells were plated at a density of 1 × 10^4 cells per well in 96-well tissue culture plates one day before infection. On the day of the experiment, the cell supernatant was removed, and 100 μL of each serially diluted compounds was added were added. HIV-1 NL4-3 in 50 μL of complete medium was then added to each well to achieve a multiplicity of infection (MOI) of 0.5. At 48 h post-infection, the luciferase activity in the cells was analyzed with the SteadyGlo reagent (Promega) according to manufacturer’s instructions. The luminescent signal was measured using the EnVison 2102 Multilabel Reader (Perkin Elmer).

Tat protein [1] = experiment: Western blot of Tat steady-state level in transfected HeLa cells; assay type: cell-based, HIV-1 NL4-3
Protocol: (§2) (A) HeLa cells were transfected with pEF1-FLAG-Tat in the presence of increasing concentrations of triptolide. Cells were harvested 48 h post-transfection, and protein expression levels were determined by Western blotting. (B) HeLa cells were transfected either with pEF1-GFP (left) or pEF1-Tat-GFP (right) in the presence of increasing concentrations of triptolide. Cells were harvested 48 h post-transfection, and protein expression levels were determined by Western blotting.
as §1

Tat protein [2] = tested on: T2, Tat protein; experiment: as above; assay type: cell-based, HIV-1 NL4-3
T2 construct: expressed in transfected cells; host or cells: HeLa
Protocol: as §2, §1

[3] = tested on: HIV-1 molecular clone pNL4-3.Luc.R-E-; experiment: Transient gene expression assay, pNL4-3.Luc.R-E- transfected into Jurkat cells; assay type: cell-based; conditions: 24 h, 118-D-24 50 μM, flavopiridol 20 nM, triptolide 0.2 ~ 5 nM
Protocol: Figure 3 Triptolide inhibits HIV-1 transcription. (A) Time-of-addition analysis. TZM-bl cells were infected with HIV-1 (MOI = 0.5, strain NL4-3), and the virus inoculum was removed after 1 h of absorption. Test compounds (dextran sulfate at 10 μg/mL, zidovudine at 1 μM and triptolide at 5 nM) were added at the indicated time points after infection. Reporter signal was monitored at 48 h post-infection as a measure of viral replication. (B) The effect of triptolide on HIV-1 proviral DNA formation. Jurkat cells were infected with HIV-1 (MOI = 0.5, strain NL4-3) in the presence of the test compounds (INI 118-D-24, 50 μM; flavopiridol, 20 nM; and triptolide, 5 nM). Proviral DNA synthesis was determined by nested PCR analysis at 12 h post-infection. (C) The effect of triptolide on HIV-1 mRNA synthesis. Jurkat cells were infected with HIV-1(MOI = 0.5, strain NL4-3) in the presence of the test compounds (INI 118-D-24, 50 μM; flavopiridol, 20 nM; triptolide, 5 nM). Viral mRNA (the Gag region) content was determined by reverse-transcription PCR analysis 12 h post-infection. (D) Inhibition of luciferase expression encoded in pNL4-3.Luc.R-E- by tiptolide. […]
To further confirm that triptolide interferes with HIV-1 transcription, a transient gene expression assay was performed. […] At 24 h after transfection, viral gene transcription (indicated by luciferase activity) was determined. […]

Question: Which results are given for `CC(C)[C@]12O[C@H]1[C@@H]1O[C@]13[C@]1(O[C@H]1C[C@H]1C4=C(CC[C@@]13C)C(=O)OC4)[C@@H]2O` [triptolide]?
Answer: Tat protein expression (FLAG-Tat): reduced to undetectable level; EC50 (HIV-1 NL4-3; Human immunodeficiency virus 1, NL43, HIV-1 NL4-3, TZM-bl, luciferase, MOI 0.5, 48 h post-infection): 0.32 nM; reduction of luciferase expression (HIV-1 NL4-3; at 5 nM, TZM-bl, HIV-1 NL4-3): 97.9%; selectivity ratio at 48 h (HIV-1 NL4-3; human, HIV-1 NL4-3, TZM-bl, read-out: SI (selective index, CC50/EC50)): 79.4; effect on steady-state level of Tat mutants with deletion of acidic, cysteine or core region (Tat protein [1]; FLAG-tagged deletion mutants, 48 h): completely aborted the activity of triptolide; steady level of FLAG-Tat-NES (Tat protein [1]; NES from HIV-1 Rev fused to C-terminus of Tat): remained unchanged; FLAG-Tat-SFV expression (Tat protein [1]; basic domain replaced with NLS from SFV capsid): dose-dependently reduced; action on nuclear versus cytoplasmic Tat Δ49–57 (Tat protein [2]; 5 nM triptolide, nuclear/cytoplasmic fractionation, 48 h): only acted on Tat protein accumulated in nucleus; effect on Tat mutant with deletion of basic region (Tat protein [2]; FLAG-Tat Δ49–57, 48 h): partially attenuated; steady-state level of Tat protein (Tat protein [2]; pEF1-FLAG-Tat, 48 h post-transfection, Western blotting): reduced by triptolide in a dose-dependent manner; effect on luciferase expression from transfected pNL4-3.Luc.R-E- [3]: inhibited reporter expression in a dose-dependent manner
